The target in the test is T1, EPOR (erythropoietin receptor), human recombinant, NSO cells (Homo sapiens, UniProt P19235).
T1 construct: host or cells: NSO cells
T1 sequence (P19235 25-250 limits assumed): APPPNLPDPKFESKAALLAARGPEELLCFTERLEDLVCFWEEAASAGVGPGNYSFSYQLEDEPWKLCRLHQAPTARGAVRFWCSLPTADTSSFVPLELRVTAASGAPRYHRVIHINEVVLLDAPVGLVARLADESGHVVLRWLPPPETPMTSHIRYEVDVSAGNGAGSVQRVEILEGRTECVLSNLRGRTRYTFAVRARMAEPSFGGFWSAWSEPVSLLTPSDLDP
The experiment in a line: EPOR radioligand binding assay ([125I] Erythropoietin competition). The conditions noted are these: for Ki (AC-0005-002)/Ki: Ki relative to that of AC-0005-002. On the procedure:
IC50 values were determined by a non-linear, least squares regression analysis using MATHIQ™ (computer software for integrating mathematical functions into new or existing software). […] Where presented, the Hill coefficient (nH), defining the slope of the competitive binding curve, was calculated using MATHIQ™.

[1] abbreviates: Example 1, mimetics varied in N-end, loop and mid sequences.
The mark [2] stands for this setting: Example 2, mimetics varied in loop, mid and C-end.

Where a SMILES comes first, the peptide text is derived from it. Bridges are numbered along the chain shown (N, C = ends). Roman numbers before positions name the chains, in order. [ ]: non-standard residue; d: D form. ξ: configuration not given here. 1Nal = N[C@@H](Cc1cccc2ccccc12)C(=O)O; ξK = NCCCCC(N)C(=O)O; Ava = NCCCCC(=O)O

This note sets out measurements from US9422338B2 (EpoDose LLC, priority 2011, dated 2016).

“I: Ac-GGLYACHMGPIT[1Nal]VCQPQGG[ξK]-NH2 / II: Ac-GGNYLCHMGPIT[1Nal]VCQPQGG[Ava] (disulfide I:6-I:15, II:6-II:15; amide I:21-II:C) [AC-0005-002]”: the “Ki (AC-0005-002)/Ki” value (Example 4, first table) is 1.

The term Ki denotes a measure of affinity in units of concentration, obtained from inhibition or displacement. The IC50 is the concentration at which inhibition is half-maximal. Take `CSCC[C@@H]1NC(=O)[C@H](Cc2c[nH]cn2)NC(=O)C(NC(=O)[C@H](CC(C)C)NC(=O)[C@H](Cc2ccc(O)cc2)NC(=O)[C@H](CC(N)=O)NC(C)=O)CCOCC(C(=O)N[C@@H](CCCCNC(=N)N)C(=O)N2CCC[C@H]2C(=O)NCCCCC(=O)NCCCCC(NC(=O)[C@@H]2CCCN2C(=O)[C@H](CCCCNC(=N)N)NC(=O)C2COCCC(NC(=O)[C@H](CC(C)C)NC(=O)[C@H](Cc3ccc(O)cc3)NC(=O)[C@H](CC(N)=O)NC(C)=O)C(=O)N[C@@H](Cc3c[nH]cn3)C(=O)N[C@@H](CCSC)C(=O)N3CCC[C@H]3C(=O)N[C@@H](Cc3ccc4ccccc4c3)C(=O)N[C@@H](C(C)C)C(=O)N2)C(N)=O)NC(=O)[C@H](C(C)C)NC(=O)[C@H](Cc2ccc3ccccc3c2)NC(=O)[C@@H]2CCCN2C1=O` (some centres unmarked) [AC-0005-056]: the Ki is, setting by setting: under setting [1], 11.2 nM; (Example 3, Cheng-Prusoff) 11.1 nM. Besides, the IC50 is, setting by setting: (Example 3) 23.5 nM; (Example 4, fifth table) 24 nM.

As for `CC[C@H](C)[C@@H]1NC(=O)[C@@H]2CCCN2C(=O)CNC(=O)[C@H](CCSC)NC(=O)[C@H](Cc2c[nH]cn2)NC(=O)C(NC(=O)[C@H](C)NC(=O)[C@H](Cc2ccc(O)cc2)NC(=O)[C@H](CC(C)C)NC(C)=O)CCOCC(C(=O)N[C@@H](CCC(N)=O)C(=O)N2CCC[C@H]2C(=O)NCCCCC(=O)NCCCCC(NC(=O)[C@@H]2CCCN2C(=O)[C@H](CCC(N)=O)NC(=O)C2COCCC(NC(=O)[C@H](C)NC(=O)[C@H](Cc3ccc(O)cc3)NC(=O)[C@H](CC(C)C)NC(C)=O)C(=O)N[C@@H](Cc3c[nH]cn3)C(=O)N[C@@H](CCSC)C(=O)NCC(=O)N3CCC[C@H]3C(=O)N[C@@H]([C@@H](C)CC)C(=O)N[C@@H]([C@@H](C)O)C(=O)N[C@@H](Cc3cccc4ccccc34)C(=O)N[C@@H](C(C)C)C(=O)N2)C(N)=O)NC(=O)[C@H](C(C)C)NC(=O)[C@H](Cc2cccc3ccccc23)NC(=O)[C@H]([C@@H](C)O)NC1=O` (some centres unmarked) [AC-0005-007], under “Example 4, first table”, the IC50 was 4950 nM and the Ki came to 2350 nM.

Take `CCN[C@@H](CC(N)=O)C(=O)N[C@@H](Cc1ccc(O)cc1)C(=O)N[C@@H](CC(C)C)C(=O)NC1CCOCC(C(=O)N[C@@H](CCCCNC(=N)N)C(=O)N2CCC[C@H]2C(=O)NC(CCCC(=O)NCCCCC(NC(=O)[C@@H]2CCCN2C(=O)[C@H](CCCCNC(=N)N)NC(=O)C2COCCC(NC(=O)[C@H](CC(C)C)NC(=O)[C@H](Cc3ccc(O)cc3)NC(=O)[C@H](CC(N)=O)NC(C)=O)C(=O)N[C@@H](CCCNC(=N)N)C(=O)N[C@@H](CCSC)C(=O)N3CCC[C@H]3C(=O)N[C@@H](Cc3ccc4ccccc4c3)C(=O)N[C@@H](C(C)C)C(=O)N2)C(=O)N[C@@H](CCCNC(=N)N)C(N)=O)C(=O)N[C@@H](CCCNC(=N)N)C(N)=O)NC(=O)[C@H](C(C)C)NC(=O)[C@H](Cc2ccc3ccccc3c2)NC(=O)[C@@H]2CCCN2C(=O)[C@H](CCSC)NC(=O)[C@H](CCCNC(=N)N)NC1=O` (some centres unmarked) [AC-0005-060]: the “Ki (AC-0005-002)/Ki” value (Example 4, sixth table) worked out at 195. The “Ki/Ki(EPO)” value (Example 4, sixth table, Ki relative to that of EPO) is recorded as 330.

Consider `CSCC[C@@H]1NC(=O)[C@H](CCCNC(=N)N)NC(=O)C(NC(=O)[C@H](CC(C)C)NC(=O)[C@H](Cc2ccc(O)cc2)NC(=O)[C@H](CC(N)=O)NC(C)=O)CCOCC(C(=O)N[C@@H](CCCCNC(=N)N)C(=O)N2CCC[C@H]2C(=O)NC(CCCCNC(=O)CCCC(NC(=O)[C@@H]2CCCN2C(=O)[C@H](CCCCNC(=N)N)NC(=O)C2COCCC(NC(=O)[C@H](CC(C)C)NC(=O)[C@H](Cc3ccc(O)cc3)NC(=O)[C@H](CC(N)=O)NC(C)=O)C(=O)N[C@@H](CCCNC(=N)N)C(=O)N[C@@H](CCSC)C(=O)N3CCC[C@H]3C(=O)N[C@@H](Cc3ccc4ccccc4c3)C(=O)N[C@@H](C(C)C)C(=O)N2)C(=O)NCCC(=O)N[C@@H](CCCNC(=N)N)C(N)=O)C(=O)NCCC(=O)N[C@@H](CCCNC(=N)N)C(N)=O)NC(=O)[C@H](C(C)C)NC(=O)[C@H](Cc2ccc3ccccc3c2)NC(=O)[C@@H]2CCCN2C1=O` (some centres unmarked) [AC-0005-063], for which, under setting [2], the Ki amounted to 1 nM. For the same compound, under “Example 4, sixth table”, the IC50 is 2.2 nM.

With `CC[C@H](C)[C@@H]1NC(=O)[C@@H]2CCCN2C(=O)CNC(=O)[C@H](CCSC)NC(=O)[C@H](Cc2c[nH]cn2)NC(=O)[C@@H](NC(=O)[C@H](C)NC(=O)[C@H](Cc2ccc(O)cc2)NC(=O)[C@H](CC(C)C)NC(C)=O)CSSC[C@@H](C(=O)N[C@@H](CCC(N)=O)C(=O)NCCCCC(=O)NCCCCC(NC(=O)[C@H](CCC(N)=O)NC(=O)[C@@H]2CSSC[C@H](NC(=O)[C@H](C)NC(=O)[C@H](Cc3ccc(O)cc3)NC(=O)[C@H](CC(C)C)NC(C)=O)C(=O)N[C@@H](Cc3c[nH]cn3)C(=O)N[C@@H](CCSC)C(=O)NCC(=O)N3CCC[C@H]3C(=O)N[C@@H]([C@@H](C)CC)C(=O)N[C@@H]([C@@H](C)O)C(=O)N[C@@H](Cc3cccc4ccccc34)C(=O)N[C@@H](C(C)C)C(=O)N2)C(N)=O)NC(=O)[C@H](C(C)C)NC(=O)[C@H](Cc2cccc3ccccc23)NC(=O)[C@H]([C@@H](C)O)NC1=O` (some centres unmarked) [AC-0005-005] (I: Ac-LYACHMGPIT[1Nal]VCQ[ξK]-NH2 / II: Ac-LYACHMGPIT[1Nal]VCQ[Ava]; disulfide I:4-I:13, II:4-II:13; amide I:15-II:C), the IC50 (Example 4, first table) is over 10000 nM.

For `CC[C@H](C)[C@@H]1NC(=O)[C@@H]2CCCN2C(=O)CNC(=O)[C@H](CCSC)NC(=O)[C@H](CCCNC(=N)N)NC(=O)[C@@H](NC(=O)[C@H](CC(C)C)NC(=O)[C@H](Cc2ccc(O)cc2)NC(=O)[C@H](CC(N)=O)NC(C)=O)CSSC[C@@H](C(=O)N[C@@H](CCCCN)C(=O)N2CCC[C@H]2C(=O)NCCCCC(=O)NCCCCC(NC(=O)[C@@H]2CCCN2C(=O)[C@H](CCCCN)NC(=O)[C@@H]2CSSC[C@H](NC(=O)[C@H](CC(C)C)NC(=O)[C@H](Cc3ccc(O)cc3)NC(=O)[C@H](CC(N)=O)NC(C)=O)C(=O)N[C@@H](CCCNC(=N)N)C(=O)N[C@@H](CCSC)C(=O)NCC(=O)N3CCC[C@H]3C(=O)N[C@@H]([C@@H](C)CC)C(=O)N[C@@H]([C@@H](C)O)C(=O)N[C@@H](Cc3c[nH]c4ccccc34)C(=O)N[C@@H](C(C)C)C(=O)N2)C(N)=O)NC(=O)[C@H](C(C)C)NC(=O)[C@H](Cc2c[nH]c3ccccc23)NC(=O)[C@H]([C@@H](C)O)NC1=O` (some centres unmarked) [AC-0005-003] (I: Ac-NYLCRMGPITWVCKP[ξK]-NH2 / II: Ac-NYLCRMGPITWVCKP[Ava]; disulfide I:4-I:13, II:4-II:13; amide I:16-II:C), the inhibition constant Ki under setting [1] was determined as 48 nM.

Turning to `CSCC[C@@H]1NC(=O)[C@H](CCCNC(=N)N)NC(=O)C(NC(=O)[C@H](CC(C)C)NC(=O)[C@H](Cc2ccc(O)cc2)NC(=O)[C@H](CC(N)=O)NC(C)=O)CCOCC(C(=O)N[C@@H](CCCCNC(=N)N)C(=O)N2CCC[C@H]2C(=O)NCCCCC(=O)NCCCCC(NC(=O)[C@@H]2CCCN2C(=O)[C@H](CCCCNC(=N)N)NC(=O)C2COCCC(NC(=O)[C@H](CC(C)C)NC(=O)[C@H](Cc3ccc(O)cc3)NC(=O)[C@H](CC(N)=O)NC(C)=O)C(=O)N[C@@H](CCCNC(=N)N)C(=O)N[C@@H](CCSC)C(=O)N3CCC[C@H]3C(=O)N[C@@H](Cc3c[nH]c4ccccc34)C(=O)N[C@@H](C(C)C)C(=O)N2)C(N)=O)NC(=O)[C@H](C(C)C)NC(=O)[C@H](Cc2c[nH]c3ccccc23)NC(=O)[C@@H]2CCCN2C1=O` (some centres unmarked) [AC-0005-051], the Ki reads like this: under setting [1], 4.6 nM; (Example 3, Cheng-Prusoff) 4.8 nM. In addition, the IC50 is, setting by setting: (Example 3) 10.1 nM; (Example 4, fifth table) 9.6 nM.

With `CC[C@H](C)[C@@H]1NC(=O)[C@@H]2CCCN2C(=O)CNC(=O)[C@H](CCSC)NC(=O)[C@H](CCCNC(=N)N)NC(=O)C(NC(=O)[C@H](C)NC(=O)[C@H](Cc2ccc(O)cc2)NC(=O)[C@H](CC(C)C)NC(C)=O)CCOCC(C(=O)NCCCCC(=O)NCCCCC(NC(=O)C2COCCC(NC(=O)[C@H](C)NC(=O)[C@H](Cc3ccc(O)cc3)NC(=O)[C@H](CC(C)C)NC(C)=O)C(=O)N[C@@H](CCCNC(=N)N)C(=O)N[C@@H](CCSC)C(=O)NCC(=O)N3CCC[C@H]3C(=O)N[C@@H]([C@@H](C)CC)C(=O)N[C@@H]([C@@H](C)O)C(=O)N[C@@H](Cc3cccc4ccccc34)C(=O)N[C@@H](C(C)C)C(=O)N2)C(N)=O)NC(=O)[C@H](C(C)C)NC(=O)[C@H](Cc2cccc3ccccc23)NC(=O)[C@H]([C@@H](C)O)NC1=O` (some centres unmarked) [AC-0005-008], the IC50 (Example 4, first table) was over 10000 nM.

As to `CSCC[C@@H]1NC(=O)[C@H](CCCNC(=N)N)NC(=O)C(NC(=O)[C@H](CC(C)C)NC(=O)[C@H](Cc2ccc(O)cc2)NC(=O)[C@H](CC(N)=O)NC(C)=O)CCOCC(C(=O)N[C@@H](CCCCN)C(=O)N2CCC[C@H]2C(=O)NC(CCCCNC(=O)CCCC(NC(=O)[C@@H]2CCCN2C(=O)[C@H](CCCCN)NC(=O)C2COCCC(NC(=O)[C@H](CC(C)C)NC(=O)[C@H](Cc3ccc(O)cc3)NC(=O)[C@H](CC(N)=O)NC(C)=O)C(=O)N[C@@H](CCCNC(=N)N)C(=O)N[C@@H](CCSC)C(=O)N3CCC[C@H]3C(=O)N[C@@H](Cc3ccc4ccccc4c3)C(=O)N[C@@H](C(C)C)C(=O)N2)C(=O)NCCC(=O)N[C@@H](CCCNC(=N)N)C(N)=O)C(=O)NCCC(=O)N[C@@H](CCCNC(=N)N)C(N)=O)NC(=O)[C@H](C(C)C)NC(=O)[C@H](Cc2ccc3ccccc3c2)NC(=O)[C@@H]2CCCN2C1=O` (some centres unmarked) [AC-0005-062], under setting [2], the Ki was 1.2 nM. The half-maximal inhibitory concentration (IC50) (Example 4, sixth table) amounted to 2.4 nM.
